In PMC7733455, “A novel multistage antiplasmodial inhibitor targeting Plasmodium falciparum histone deacetylase 1” (Cell Discovery, 2020):
Like-named read-outs stand apart in the source and are kept apart here.

Columns and labels:
P. falciparum 3D7 = experiment: 3-day SYBR Green I growth inhibition assay (GIA), strain 3D7; format: cell-based, Plasmodium falciparum; conditions: Plasmodium falciparum, 3D7, 72 h, read-out: Antiplasmodial activity EC50, 3D7
Description: (§1) A 3-day SYBR Green I inhibition EC50 assay was performed as described previously. Briefly, highly synchronized ring-stage parasites by 5% sorbitol (1% parasitemia and 2% hematocrit) were incubated in a 96-well plate with compounds in a total volume of 200 μL. […] The parasites were cultured for 72 h before SYBR Green I staining as described above. The EC50 was calculated by GraphPad Prism. DHA was used as a positive control, and the final concentration of DMSO was 1%.

P. falciparum Dd2 = experiment: 3-day SYBR Green I GIA, multidrug-resistant strain Dd2; format: cell-based, Plasmodium falciparum
Description: as §1

[1] = In vitro cytotoxicity analysis (CellTiter-Glo), HepG2; conditions: human, HepG2 cells
Description: (§2) In all, 1% DMSO was used as a negative control. The inhibition of each drug was normalized to that of the DMSO control. EC50 was calculated by GraphPad Prism. Three independent assays with two technical replicates each time were conducted in this experiment.

HepG2 cells = experiment: as above; conditions: read-out: Cytotoxicity EC50, HepG2; 72 h, CellTiter-Glo
Description: as §2

[2] = In vitro cytotoxicity analysis (CellTiter-Glo), 293T; conditions: human, 293T cells, Cytotoxicity EC50, 293T, 72 h, CellTiter-Glo
Description: as §2

293T cells = experiment: as above; conditions: read-out: Cytotoxicity EC50, 293T; 72 h, CellTiter-Glo
Description: as §2

[3] = Liver microsome metabolism assay, mouse; format: in vitro ADME
Description: Liver microsomes (0.5 mg/mL) were purchased from Corning. Ketanserin was selected as a positive control. The tested compounds were first dissolved in DMSO to a concentration of 10 mM and then diluted to 0.5 mM with acetonitrile. Liver microsome buffer was used to dilute the compounds to a working concentration of 1.5 µM, 30 µL of which was mixed with 15 µL of 6 mM NADPH at 37 °C. At 0, 5, 15, 30, and 45 min after incubation, 135 µL of acetonitrile was added to quench the reaction. The mixture was shaken on a vortex mixer (IKA, MTS 2/4) for 10 min at 600 rpm/min and then centrifuged at 5594× g for 15 min (Thermo Multifuge×3R). The supernatant was diluted 1:1 into distilled water, and analyzed by LC-MS/MS.

[4] = Pharmacokinetic assay in mice; format: in vivo, BALB/c mice; conditions: 5 mg/kg i.p.
Description: Five female BALB/c mice (6–8 weeks, 18–19 g) per group were purchased from JH Laboratory Animal Co., Ltd. All mice were raised at controlled temperature and humidity and had free access to food and water. Compounds were dissolved in 5% DMSO and diluted with 20% aqueous 2-hydroxypropyl-β-cyclodextrin solution to a stock concentration of 0.5 mg/mL. Each mouse was i.p. injected with the compound solution at a dose of 5 mg/kg. Blood samples collected by anticoagulant (K2EDTA)-containing tubes at 0.25, 0.5, 1, 2, 4, 8, and 24 h after injection were centrifuged at 2000× g at 4 °C for 5 min to obtain plasma. LC-MS/MS analysis of samples was carried out by an ACQUITY UPLC HSS T3 1.8-μm column. The mobile phase was a mixture of phase A (0.1% formic acid in water) and phase B (0.1% formic acid in acetonitrile), which ran in gradient mode at a flow rate of 0.6 mL/min at 60 °C. Mass spectra were obtained on an API6500 triple quadrupole equipped with an ESI source. Propranolol was used as an internal standard. The plasma concentrations of the compounds were analyzed, and the pharmacokinetic parameters were calculated via WinNonlin.

hSirt2 = molecular target: T1, hSirt2 (Homo sapiens, UniProt Q8IXJ6); experiment: Human HDAC inhibition assay, hSirt2; format: biochemical; conditions: performed only once; read-out: Inhibitory Activity IC50, hSirt2
T1 construct: purchased BPS Bioscience 50013
T1 sequence (Q8IXJ6 whole entry): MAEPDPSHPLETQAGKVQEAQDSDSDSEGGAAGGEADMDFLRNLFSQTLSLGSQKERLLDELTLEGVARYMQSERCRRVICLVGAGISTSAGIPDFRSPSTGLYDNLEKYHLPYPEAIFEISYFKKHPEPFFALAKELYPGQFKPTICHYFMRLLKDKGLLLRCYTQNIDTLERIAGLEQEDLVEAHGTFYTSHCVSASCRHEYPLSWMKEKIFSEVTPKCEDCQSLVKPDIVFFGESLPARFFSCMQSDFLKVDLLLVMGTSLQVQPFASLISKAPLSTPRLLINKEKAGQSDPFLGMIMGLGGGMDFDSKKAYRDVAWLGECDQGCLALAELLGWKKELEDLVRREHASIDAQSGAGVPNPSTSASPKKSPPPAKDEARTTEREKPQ
Description: SAHA and suramin were used as positive controls. The tested compounds were dissolved into 20 mM stock in 100% DMSO. […] Ten microliters of trypsin and Ac-peptide substrate/Tris buffer solution were added to start the reaction, followed by a 1-h incubation at room temperature for HDACs 1–3 and 6. Ten microliters of Ac-peptide substrate/Tris buffer solution was added to start the reaction, followed by a 4-h incubation at room temperature and a further 2-h incubation with trypsin solution for HDAC8 and Sirt 2. […] This experiment was performed only once.

[5] = tested on: parasite histone H3 acetylation; experiment: Western blot of histone H3 acetylation in parasites; format: cell-based, Plasmodium falciparum; conditions: 4 h treatment of asynchronous 3D7; quisinostat/JX21108 5 and 20 nM, SAHA 500 nM
Description: Then the parasite samples were harvested and treated with 0.15% saponin to remove the RBC proteins and sonicated in 1% NP40 lysis buffer. After centrifugation at 12,000× g for 15 min, the supernatant was resuspended in a routine SDS loading buffer. Parasite proteins were separated by 10% SDS-PAGE and transferred onto PVDF membranes (Millipore). […] A2348) followed by a secondary antibody conjugated with HRP (Jackson Immuno Research Laboratories). The chemiluminescent HRP substrate Immobilon Western Kit (Millipore) was used for signal detection.

[6] = tested on: asynchronous 3D7 parasites; experiment: Time- and dose-dependent parasite inhibition assay; format: cell-based, Plasmodium falciparum
Description: Asynchronous parasites (2% parasitemia, 4% hematocrit) were treated with the tested compounds at a concentration of 10, 30, 60, or 100 nM, respectively. At 3, 6, 12, and 24 h post treatment, parasitemia of each sample was detected by flow cytometry to investigate the time-dependent activity. Parasites from the same treatment were further washed to remove compounds, and parasitemia was diluted 1:40 by new RBCs into CM for an additional 4 days of culture. Parasitemia of each sample was detected by flow cytometry as described above to investigate the dose-dependent activity. DMSO was used as a blank control.

P. yoelii = experiment: In vivo efficacy of the five HDAC inhibitor hits in rodent malaria model (Fig. S1c); set-up: species or system Plasmodium yoelii in BALB/c mice; conditions: i.p., three mice per group
Description: Fimepinostat Pinometostat
Sodium Phenylbutyrate 500 50
Givinostat hydrochloride monohydrate
Supplementary Fig. S1 Screening of epigenetic inhibitors against blood-stage P. […]
nM and 500 nM tested compounds compared to that with the DMSO control. b The EC50 values of five compounds against Pf3D7, HepG2 and 293T cells; SIa,EC 50 HepG2/ […]
of P. yoelii in BALB/c mice. Three mice were used in each group. Parasitemia was calculated from at least 5,000 red blood cells (RBCs) by microscopy . Blank, untreated group; PPQ, piperaquine phosphate. The administration route was intraperitoneal (i.p.). The data of a and b are from three independent biological replicates in […]
(also on this page, place not known: BET BromodominHDMHMT […] HDAC SI ±3.2 ±24 ±125 % Parasitemia microscopy. a) […]

[7] = female, BALB/c, mouse, plasma, ip

Compound: Cn1cc(CNCC2CCN(c3ncc(C(=O)NO)cn3)CC2)c2ccccc21 [Quisinostat, reference compound]
- EC50 (P. falciparum 3D7): 5.2 ± 0.7 nM
- EC50 (P. falciparum Dd2; Plasmodium falciparum, DD2, 72 h, read-out: Antiplasmodial activity EC50, Dd2, 3-day SYBR Green I GIA, multidrug-resistant strain Dd2): 7.1 nM
- EC50 (P. falciparum Dd2; read-out: Antiplasmodial activity EC50, Dd2, 3-day SYBR Green I GIA, multidrug-resistant strain Dd2): 7.09 ± 0.01 nM
- EC50 at 72 h [1]: 48 nM
- EC50 (HepG2 cells): 42 ± 10 nM
- EC50 at 72 h [2]: 42 nM
- EC50 (293T cells): 48 ± 1 nM
- T1/2 in liver microsomes [3]: 13.31 min
- half-life at 1 µM ([3]; mouse, liver microsomes, read-out: T1/2 in liver microsomes): 13.3 min
- CL/F [4]: 27.7 L/h/kg
- Cmax [4]: 88.7 ng/mL
- Tmax [4]: 4.98 min
- V/F [4]: 245 L/kg
- plasma concentration ([4]; during 8–12 h after administration): ~ 2.5 ng/mL
- AUC(0-inf) [4, 7]: 180 ng·h/mL
- AUC(0-t) [4, 7]: 157 ng·h/mL
- half-life [4, 7]: 368 min
- IC50 (hSirt2): > 10 µM
- pan-acetylation levels of parasite histone H3 [5]: greatly increased the pan-acetylation levels of parasite histone H3
- parasitemia measured 4 days after 6-h treatment ([6]; 6-h treatment, washed, 1:40 dilution, 4 days culture): substantial reduction in parasitemia
- asexual growth of 3D7 after 12- and 24-h treatments ([6]; 10-100 nM, parasitemia immediately after treatment): significantly inhibited the asexual growth of 3D7 parasites
- clearing of P. yoelii blood-stage infections (P. yoelii): remained effective in clearing P. yoelii blood-stage infections
